Test results reported in patent US20060069132A1, “Azolecarboxamide herbicides” (priority 2004, published 2006).

Columns and labels:
Surinam grass = assay: Test B pre-/postemergence herbicide test; assay type: in vivo, Urochloa decumbens; details: for Surinam Grass plant response rating: scale 0 (no effect) to 100 (complete control)
How it was run: (§1)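 Formulation: non-phytotoxic solvent mix with surfactant. Timing: preemergence on seed and postemergence on 2–18 cm plants, applied concurrently. Readout after 13–15 d greenhouse: visual 0–100 control rating against controls.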

large crabgrass [1] = assay: Test B pre-/postemergence herbicide test; assay type: in vivo, Digitaria sanguinalis; details: for Crabgrass, Large plant response rating: postemergence
How it was run: as §1

cocklebur = assay: Test C pre-/postemergence herbicide test; assay type: in vivo, Xanthium strumarium; details: preemergence
How it was run: (§2)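 Emerged plants at the 1- to 4-leaf stage (2–18 cm), or freshly planted seeds, received test chemicals in a non-phytotoxic solvent mixture with surfactant. Response was visually scored against controls after 12 to 14 days in the greenhouse, on a 0 (no effect) to 100 (complete control) scale.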

large crabgrass [2] = assay: Test C pre-/postemergence herbicide test; assay type: in vivo, Digitaria sanguinalis; details: preemergence
How it was run: as §2

johnsongrass = assay: Test C pre-/postemergence herbicide test; assay type: in vivo, Sorghum halepense; details: preemergence
How it was run: as §2

morningglory = assay: Test C pre-/postemergence herbicide test; assay type: in vivo, Ipomoea coccinea; parameters: key to Plant response rating, Morningglory: 0 = no effect, 100 = complete control; details: preemergence
How it was run: as §2

eastern black nightshade = assay: Test C pre-/postemergence herbicide test; assay type: in vivo, Solanum ptycanthum; details: preemergence
How it was run: as §2

yellow nutsedge = assay: Test C pre-/postemergence herbicide test; assay type: in vivo, Cyperus esculentus; details: preemergence
How it was run: as §2

barnyardgrass = assay: Test C flooded paddy test; assay type: in vivo, Echinochloa crus-galli
How it was run: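 Injury scored visually against controls on a 0 (no effect) to 100 (complete control) scale, 12 to 14 days after treatment in greenhouse. Flooded paddy plants treated at 2-leaf stage; postemergence plants at 1- to 4-leaf stage, 2 to 18 cm tall.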

[3] = 125 g ai/ha, 0 is no effect, 100 is complete control, preemergence
[4] = 500 g ai/ha, scale 0 to 100 (0 no effect, 100 complete control), visual, 12 to 14 days

## C=CCNC(=O)c1cccc(NC(=O)c2nn(C(C)C)nc2CC)c1 [Compound 382]
Surinam grass; [3]
  Plant response rating (0 to 100 scale), Surinam Grass: 50
Surinam grass; 125 g ai/ha, visual rating, postemergence
  Surinam Grass plant response rating: 10
Surinam grass; Postemergence, 500 g ai/ha
  Surinam Grass plant response rating: 10
Large crabgrass [1]; [3]
  Plant response rating (0 to 100 scale), Crabgrass, Large: 80
Large crabgrass [1]; 125 g ai/ha, visual rating, scale 0 (no effect) to 100 (complete control)
  Crabgrass, Large plant response rating: 10
Large crabgrass [1]; 500 g ai/ha, scale 0 to 100, 0 is no effect, 100 is complete control
  Crabgrass, Large plant response rating: 10
cocklebur; 62 g ai/ha, scale 0 to 100
  Plant response rating, Cocklebur: 0
cocklebur; 125 g ai/ha
  Plant response rating (0 = no effect, 100 = complete control), Cocklebur: 15
cocklebur; 250 g ai/ha, scale 0-100
  Plant response rating, Cocklebur: 20
cocklebur; [4]
  Plant response rating, Cocklebur: 45
Large crabgrass [2]; 62 g ai/ha, scale 0 to 100
  Plant response rating, Crabgrass, Large: 95
Large crabgrass [2]; 125 g ai/ha
  Plant response rating (0 = no effect, 100 = complete control), Crabgrass, Large: 100
Large crabgrass [2]; 250 g ai/ha, scale 0-100
  Plant response rating, Crabgrass, Large: 100
Large crabgrass [2]; [4]
  Plant response rating, Crabgrass, Large: 100
johnsongrass; 62 g ai/ha, scale 0 to 100
  Plant response rating, Johnsongrass: 70
johnsongrass; 125 g ai/ha
  Plant response rating (0 = no effect, 100 = complete control), Johnsongrass: 95
johnsongrass; 250 g ai/ha, scale 0-100
  Plant response rating, Johnsongrass: 100
johnsongrass; [4]
  Plant response rating, Johnsongrass: 100
morningglory; 62 g ai/ha, scale 0 to 100
  Plant response rating, Morningglory: 0
morningglory; 125 g ai/ha
  Plant response rating (0 = no effect, 100 = complete control), Morningglory: 25
morningglory; 250 g ai/ha, scale 0-100
  Plant response rating, Morningglory: 65
morningglory; [4]
  Plant response rating, Morningglory: 100
Eastern black nightshade; 62 g ai/ha, scale 0 to 100
  Plant response rating, Nightshade: 95
Eastern black nightshade; 250 g ai/ha, scale 0-100
  Plant response rating, Nightshade: 95
Eastern black nightshade; [4]
  Plant response rating, Nightshade: 100
Yellow nutsedge; 62 g ai/ha, scale 0 to 100
  Plant response rating, Nutsedge, Yellow: 0
Yellow nutsedge; 125 g ai/ha
  Plant response rating (0 = no effect, 100 = complete control), Nutsedge, Yellow: 0
Yellow nutsedge; 250 g ai/ha, scale 0-100
  Plant response rating, Nutsedge, Yellow: 25
Yellow nutsedge; [4]
  Plant response rating, Nutsedge, Yellow: 60
barnyardgrass; 62 g ai/ha, scale 0 to 100 (0 no effect, 100 complete control)
  Barnyardgrass plant response rating: 10
barnyardgrass; 125 g ai/ha, scale 0 to 100 (0 no effect, 100 complete control)
  Barnyardgrass plant response rating: 25
barnyardgrass; 250 g ai/ha, scale of 0 to 100, 0 is no effect, 100 is complete control
  Barnyardgrass plant response rating: 65
barnyardgrass; 500 g ai/ha, visual rating after 12 to 14 days, scale 0 to 100 (0 no effect, 100 complete control)
  Plant response rating, Barnyardgrass: 75
